According to US20090100532A1, “TRANSGENIC MICE EXPRESSING HYPERSENSITIVE NICOTINIC RECEPTORS” (CALIFORNIA INSTITUTE OF TECHNOLOGY, priority 2007, published 2009):
“And” between values parts separate entries of the source, which are not always exact repeats. Equal values may be shown once.

How the values were obtained:
nAChRs [1] = assay type: biochemical, mouse
Protocol: (§1) Neurotransmitter Release from Striatal Synaptosomes. After a mouse was sacrificed by cervical dislocation, its brain was removed and placed immediately on an ice-cold platform and brain regions were dissected. Tissues from each mouse were homogenized in 0.5 ml of ice-cold 0.32 M sucrose buffered with 5 mM HEPES, pH 7.5. A crude synaptosomal pellet was prepared by centrifugation at 12,000 g for 20 min. The pellets were resuspended in “uptake buffer”: 128 mM NaCl, 2.4 mM KCl, 3.2 mM CaCl2, 1.2 mM KH2PO4, 1.2 mM MgSO4, 25 mM HEPES, pH 7.5, 10 mM glucose. For DA uptake, buffer was supplemented with 1 mM ascorbic acid and 0.01 mM pargyline, whereas for GABA uptake, buffer was supplemented with 1 mM aminooxyacetic acid. For [^3H]GABA uptake, synaptosomes were incubated for 10 min at 37° C. […] For DA uptake, synaptosomes were incubated at 37° C. in uptake buffer for 10 min before addition of 100 nM [^3H]dopamine (1 μCi for every 0.2 ml of synaptosomes), and the suspension was incubated for an additional 5 min.
(§2) All experiments were conducted at room temperature using methods described previously (Nashmi et al., 2007; Salminen et al., 2007) with modifications for collection into 96-well plates. In brief, aliquots of synaptosomes (80 μl) were distributed onto filters and perfused with buffer (uptake buffer containing 0.1% bovine serum albumin and 1 μM atropine with 1 μM nomifensine (for DA release) or 0.1 μM NNC-711 [1-(2-(((diphenylmethylene)amino)oxy)ethyl)-1,2,5,6-tetrahydro-3-pyridinecarboxylic acid hydrochloride]) (for GABA release) at 0.7 ml/min for 10 min, or buffer for 5 min followed by buffer with 50 nM αCtxMII. […] Fractions (−0.1 ml) were collected for 4 min into 96-well plates every 10 sec starting from 1 min before stimulation, using a Gilson FC204 fraction collector with a multicolumn adapter (Gilson, Inc.; Middleton, Wis.). Radioactivity was determined by scintillation counting using a 1450 MicroBeta Trilux scintillation counter (Perkin Elmer Life Sciences-Wallac Oy; Turku, Finland) after addition of 0.15 ml Optiphase ‘SuperMix’ scintillation cocktail. Instrument efficiency was 40%.
(§3) Data were analyzed using SigmaPlot 5.0 for DOS. Perfusion data were plotted as counts per minute versus fraction number. Fractions collected before and after the peak were used to calculate baseline as a single exponential decay. The calculated baseline was subtracted from the experimental data. Fractions that exceeded baseline by 10% or more were sunmmed to give total released cpm and then normalized to baseline to give units of release [(cpm-baseline)/baseline]. Agonist dose response data were fit to the Hill equation.

α4β2* (non-α6) nAChRs = molecular target: T1, α4β2* (non-α6) nAChRs (Mus musculus, UniProt O70174+Q9ERK7); assay: biochemical; assay type: biochemical
T1 construct: from tissue; host or cells: striatal / olfactory tubercle synaptosomes of WT and α6L9′S mice
Protocol: as §1, §2, §3

α6* nAChRs [2] = molecular target: T2, α6* nAChRs (Mus musculus, UniProt Q9ERK7+Q9R0W9); assay: biochemical; assay type: biochemical
T2 construct: from tissue
Protocol: as §1, §2, §3

α6* nAChRs [3] = molecular target: T3, α6* nAChRs (Mus musculus, UniProt Q9ERK7+Q9R0W9, L280S); assay: biochemical; assay type: biochemical
T3 construct: from tissue
Protocol: as §1, §2, §3

nAChRs [4] = molecular target: nAChRs (Mus musculus, UniProt O70174+Q9ERK7)
Protocol: as §1, §2, §3

α4β2* nAChRs = α4β2* nAChRs (Mus musculus, UniProt O70174+Q9ERK7)
Protocol: as §1, §2, §3

α6* nAChRs [5] = test system: α6* nAChRs
Protocol: as §1, §2, §3

α6^L9′S mice = conditions: mouse, in vivo
Protocol: Locomotor Activity. Mice used to study locomotion were eight to sixteen weeks old by the beginning of an experiment, and were back-crossed to C57BL/6 at least three times. […] Mouse horizontal locomotor activity was measured with an infrared photobeam activity cage system (San Diego Instruments; San Diego, Calif.). Ambulation events were recorded when two contiguous photobeams were broken in succession. Acute locomotor activity in response to nicotinic ligands or other agents was studied by recording ambulation events during four 15 sec intervals per minute for a designated number of minutes. For most experiments, groups of eight mice were placed in the activity cages (18×28 cm) and their baseline level of activity was recorded for eight minutes. Mice were removed from their cage, injected (100 μl per 25 g body mass), and returned to the cage within 15 sec. […] For generation of locomotor activity concentration-response relationship profiles, a group of mice was administered saline and, after five to eight days off, each successive dose of drug. […] For 48 h home cage monitoring, mice were isolated in their own cage and habituated to the test room and cage for 24 h. Following this, locomotor activity was recorded in 15 min intervals for 48 h.

[6] = molecular target: hypersensitive nicotinic receptors in α6L9′S VTA DA neurons (Mus musculus, UniProt Q9ERK7+Q9R0W9, L280S); assay type: cell-based
LC neurons (α6* nAChRs) = assay type: cell-based, mouse
WT and α6^L9′S mice = conditions: mouse, in vivo
[7] = test system: αCtxMII-sensitive receptors (α6*)
[8] = molecular target: αCtxMII-resistant receptors (Mus musculus, UniProt O70174+Q9ERK7)
[9] = test system: substantia nigra DA and GABA neurons
[10] = in vivo; cited from earlier work
[11] = in vivo; cited from earlier work; remark: listed apart in the source

Sequence of α4β2* nAChRs (Q9ERK7 26-501): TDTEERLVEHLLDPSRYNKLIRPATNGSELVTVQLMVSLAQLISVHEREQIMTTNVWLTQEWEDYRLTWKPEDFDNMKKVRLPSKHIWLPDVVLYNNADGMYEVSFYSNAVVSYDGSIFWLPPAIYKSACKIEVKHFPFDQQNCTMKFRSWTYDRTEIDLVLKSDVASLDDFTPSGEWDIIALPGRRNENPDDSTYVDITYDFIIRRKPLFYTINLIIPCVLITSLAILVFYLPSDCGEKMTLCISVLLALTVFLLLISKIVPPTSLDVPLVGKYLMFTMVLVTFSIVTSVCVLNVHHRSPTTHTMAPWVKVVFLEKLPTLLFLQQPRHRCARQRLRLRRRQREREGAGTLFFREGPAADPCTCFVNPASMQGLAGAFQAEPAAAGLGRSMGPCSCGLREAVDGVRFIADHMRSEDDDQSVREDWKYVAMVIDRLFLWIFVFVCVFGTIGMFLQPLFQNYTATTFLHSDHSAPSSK
Sequence of α4β2* nAChRs (O70174 31-629): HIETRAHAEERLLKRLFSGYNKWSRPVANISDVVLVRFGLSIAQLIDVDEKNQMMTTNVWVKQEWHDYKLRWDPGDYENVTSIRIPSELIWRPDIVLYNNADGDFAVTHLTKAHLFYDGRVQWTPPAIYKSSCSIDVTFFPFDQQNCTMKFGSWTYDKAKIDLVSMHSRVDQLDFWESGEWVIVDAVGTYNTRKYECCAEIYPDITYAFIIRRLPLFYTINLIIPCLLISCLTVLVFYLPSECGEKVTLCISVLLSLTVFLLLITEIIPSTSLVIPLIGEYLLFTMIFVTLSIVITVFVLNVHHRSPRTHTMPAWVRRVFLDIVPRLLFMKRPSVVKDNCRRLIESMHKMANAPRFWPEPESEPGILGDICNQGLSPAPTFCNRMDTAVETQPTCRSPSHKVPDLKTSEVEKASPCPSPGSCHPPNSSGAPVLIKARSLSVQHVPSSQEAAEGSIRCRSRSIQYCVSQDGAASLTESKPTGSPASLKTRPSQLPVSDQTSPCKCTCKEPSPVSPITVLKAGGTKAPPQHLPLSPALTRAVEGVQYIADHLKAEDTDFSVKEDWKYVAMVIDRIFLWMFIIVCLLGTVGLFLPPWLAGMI
T3 sequence (Q9ERK7 26-501, stated change not applied): as the sequence (Q9ERK7 26-501) above
T3 sequence (Q8BMN3 31-464, further chain): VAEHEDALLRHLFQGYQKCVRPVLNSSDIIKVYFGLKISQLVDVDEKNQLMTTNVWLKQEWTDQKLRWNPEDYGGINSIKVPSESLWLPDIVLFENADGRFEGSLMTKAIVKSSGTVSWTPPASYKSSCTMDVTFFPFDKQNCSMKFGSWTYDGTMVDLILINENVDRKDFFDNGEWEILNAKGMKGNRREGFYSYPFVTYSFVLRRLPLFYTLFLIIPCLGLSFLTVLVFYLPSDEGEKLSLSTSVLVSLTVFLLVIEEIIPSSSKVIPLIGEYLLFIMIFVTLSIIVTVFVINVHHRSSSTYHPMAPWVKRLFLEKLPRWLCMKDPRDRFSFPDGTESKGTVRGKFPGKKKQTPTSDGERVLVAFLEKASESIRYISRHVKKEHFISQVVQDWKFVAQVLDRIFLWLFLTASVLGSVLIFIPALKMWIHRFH
T3 sequence (Q9R0W9 31-494 L280S): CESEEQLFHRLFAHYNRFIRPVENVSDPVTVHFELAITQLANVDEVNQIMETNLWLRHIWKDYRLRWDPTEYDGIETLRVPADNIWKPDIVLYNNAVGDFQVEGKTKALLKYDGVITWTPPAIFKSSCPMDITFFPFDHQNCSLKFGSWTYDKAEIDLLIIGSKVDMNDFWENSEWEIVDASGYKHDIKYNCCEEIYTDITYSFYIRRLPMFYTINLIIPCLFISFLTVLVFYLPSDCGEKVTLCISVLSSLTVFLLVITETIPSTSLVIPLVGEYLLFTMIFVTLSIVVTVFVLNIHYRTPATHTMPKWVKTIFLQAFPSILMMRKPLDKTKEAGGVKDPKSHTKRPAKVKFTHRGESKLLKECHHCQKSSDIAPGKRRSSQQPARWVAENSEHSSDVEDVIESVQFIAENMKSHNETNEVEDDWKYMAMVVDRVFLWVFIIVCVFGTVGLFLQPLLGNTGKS
T1 sequence (Q9ERK7 26-501): as the sequence (Q9ERK7 26-501) above
T1 sequence (O70174 31-629): as the sequence (O70174 31-629) above
Sequence of nAChRs (Mus musculus, UniProt O70174+Q9ERK7) (Q9ERK7 26-501): as the sequence (Q9ERK7 26-501) above
Sequence of nAChRs (Mus musculus, UniProt O70174+Q9ERK7) (O70174 31-629): as the sequence (O70174 31-629) above
T2 sequence (Q9R0W9 31-494): as the sequence (Q9R0W9 31-494 L280S) above, with S250L counted along it
T2 sequence (Q8BMN3 31-464, further chain): as the sequence (Q8BMN3 31-464, further chain) above
T2 sequence (Q9ERK7 26-501): as the sequence (Q9ERK7 26-501) above
Sequence of hypersensitive nicotinic receptors in α6L9′S VTA DA neurons (Q9ERK7 whole entry, looked up, stated change not applied): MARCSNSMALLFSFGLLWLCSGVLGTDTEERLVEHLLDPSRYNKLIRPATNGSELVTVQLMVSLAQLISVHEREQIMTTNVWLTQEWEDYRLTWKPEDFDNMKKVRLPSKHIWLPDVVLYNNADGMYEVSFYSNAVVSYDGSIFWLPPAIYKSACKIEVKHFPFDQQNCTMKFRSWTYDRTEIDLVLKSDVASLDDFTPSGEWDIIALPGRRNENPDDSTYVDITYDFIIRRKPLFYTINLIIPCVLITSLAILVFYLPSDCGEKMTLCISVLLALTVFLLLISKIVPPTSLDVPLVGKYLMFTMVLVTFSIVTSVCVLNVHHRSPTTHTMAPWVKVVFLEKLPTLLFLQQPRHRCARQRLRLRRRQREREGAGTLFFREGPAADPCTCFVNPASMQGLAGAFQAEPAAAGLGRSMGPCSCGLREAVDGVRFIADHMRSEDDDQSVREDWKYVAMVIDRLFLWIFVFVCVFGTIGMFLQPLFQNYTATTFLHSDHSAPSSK
Sequence of hypersensitive nicotinic receptors in α6L9′S VTA DA neurons (Q9R0W9 whole entry, looked up, stated change not applied): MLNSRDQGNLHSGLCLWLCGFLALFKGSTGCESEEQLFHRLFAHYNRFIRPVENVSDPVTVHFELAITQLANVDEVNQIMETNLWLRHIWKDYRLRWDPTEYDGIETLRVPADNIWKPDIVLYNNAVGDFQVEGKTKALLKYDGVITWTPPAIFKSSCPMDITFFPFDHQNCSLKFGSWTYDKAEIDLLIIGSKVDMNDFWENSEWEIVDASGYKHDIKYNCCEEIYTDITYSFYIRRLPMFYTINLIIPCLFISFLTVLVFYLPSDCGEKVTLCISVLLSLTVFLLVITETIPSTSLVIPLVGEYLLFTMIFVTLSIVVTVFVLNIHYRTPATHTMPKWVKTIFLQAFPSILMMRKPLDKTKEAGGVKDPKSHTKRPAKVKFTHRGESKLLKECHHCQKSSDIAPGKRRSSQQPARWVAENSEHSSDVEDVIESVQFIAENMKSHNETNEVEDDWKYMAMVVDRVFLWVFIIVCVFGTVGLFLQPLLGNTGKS
Sequence of αCtxMII-resistant receptors (O70174 31-629, change not shown): as the sequence (O70174 31-629) above
Sequence of αCtxMII-resistant receptors (Q9ERK7 26-501, change not shown): as the sequence (Q9ERK7 26-501) above

SMILES: CN1CCCC1c1cccnc1 (single isomer, unassigned) [nicotine]
- Rmax (±SEM), Total DA release (nAChRs [1]): 33.1 ± 2.1 and 36.0 ± 1.3 and 34.3 ± 1.7 and 20.9 ± 1.0 and 21.4 ± 0.9 and 20.8 ± 1.2
- Total DA release by 10 μM nic (positive control) (nAChRs [1]): 16.69 and 19.68 and 20.65 and 17.70 and 17.30 and 16.70
- MII-resistant DA release by 10 μM nic (positive control) (α4β2* (non-α6) nAChRs): 14.55 and 8.75 and 10.78 and 15.07 and 8.91 and 10.26
- MII-sensitive DA release by 10 μM nic (positive control) (α6* nAChRs [2]): 3.19 and 1.63
- Rmax (±SEM), MII-sensitive DA release (α6* nAChRs [2]): 5.41 ± 0.54 and 7.03 ± 0.86
- MII-sensitive DA release by 10 μM nic (positive control) (α6* nAChRs [3]): 8.53 and 5.97 and 10.77 and 10.39
- Rmax (±SEM), Total GABA release (nAChRs [4]): 1.64 ± 0.32 and 1.25 ± 0.06 and 1.22 ± 0.11
- Rmax (±SEM), MII-resistant GABA release (α4β2* nAChRs): 1.40 ± 0.08 and 1.26 ± 0.08 and 1.30 ± 0.10
- EC50 (±SEM), MII-sensitive GABA release (α6* nAChRs [5]): no activity
- Rmax (±SEM), MII-sensitive GABA release (α6* nAChRs [5]): no activity
- tolerance or sensitization: change in locomotor behavior after repeated injections (α6^L9′S mice): did not produce any change in locomotor behavior
- inward currents elicited by puffs of 1 μM [6]: larger than those seen in WT neurons at any concentration
- responses to locally applied nicotine in LC neurons (LC neurons (α6* nAChRs)): larger responses
- hypothermia response, WT versus α6^L9′S mice (WT and α6^L9′S mice): No difference was found
- αCtxMII-sensitive 86Rb+ efflux [7]: hypersensitive to nicotine relative to WT
- αCtxMII-resistant 86Rb+ efflux [8]: unchanged
- firing rate in response to local application (VTA DA neurons): significant increase in the firing rate
- average responses (peak current) in GABA neurons [9]: < 10 pA
- responses in WT DA and GABA neurons [9]: undetectable
- concentration in the cerebrospinal fluid of smokers [10]: ≤ 500 nM
- elimination half life [11]: ~7 min
